From patent US20250276999A1, “PEPTIDES FOR PROMOTING HAIR FOLLICLE NEOGENESIS, AND PREVENTION/MITIGATION OF UNTOWARD EFFECTS OF RADIATION TREATMENT” (Trustees of Tufts College, priority 2022, published 2025)
“Also recorded” adds a separate entry of the source.

Tested on: X-ray irradiated and wounded mice
Assay: Combined injury murine model (thoracic X-ray irradiation plus wound)
Format: in vivo, C57BL/6 mice
From the text: The C57BL/6 strain of mice has been utilized extensively for the study of radiation-induced skin injuries. We determined that 16 Gy is the minimal dosage for the induction of radiation burns in C57BL/6 mice that are not repaired within 45 days. Sham irradiated mice without wounds were used as controls for radiation dermatitis, and treated identically as irradiated mice. Wounded mice, without radiation, were used as controls for combined injury.
Animals were irradiated in the RS2000 small animal irradiator. The RS2000 provides a cone-shaped radiation field with irradiation at 12.39-40.50 cm from the X-ray source. For dose measurements, irradiation was performed with the following settings: 160 kVp, 25 mA, 90 s irradiation time and 0.3 mm Cu beam filtration. The approximate HVL provided by the manufacturer was 0.62 mm Cu. The University of Wisconsin Medical Radiation Research Center (UW MRRC) provided eight acrylic mouse phantoms with three (1×1×1 mm) Harshaw thermoluminenscence dosimeter (TLD)-100 microcubes (ThermoElectron Corp., Oakwood Village, OH) embedded in each phantom. The cylindrical phantom had dimensions of 27 mm in diameter (D)×65 mm in length (L) and was stabilized by a cylindrical insert 15 mm (D)×27 mm (L) with a 3 mm thick stand. A custom lead shield was placed on the floor of the irradiator, with the mouse thoracic region ˜43.75 cm from the X-ray source. Dose measurements were conducted twice to account for set-up error and reproducibility. TLDs were processed at UW MRRC using a national standard with an expanded uncertainty (k=2) of 5%. The dose rate was reported for each aperture position 1-4 as an absorbed dose rate to water (ADRW, Gy/min) and the two repeated measurements were averaged.
Mice (12-14 weeks of age) were anesthetized using inhaled anesthesia (isoflurane), and the fur was clipped on the dorsal side of the thoracic region. Two days after fur clipping, mice to be used for combined injury were given acetaminophen (150 mg/kg in 0.5 ml sterile saline) by gavage. Animals were then anesthetized with injected anesthesia (150 mg/kg ketamine/18 mg/kg xylazine) and placed in Lucite jigs for exposure to 16.5 Gy thoracic irradiation in the RS2000 X-ray irradiator as previously described. For combined injury, immediately following thoracic irradiation and while still under anesthesia, the area of the skin was scrubbed with betadine or chlorhexidine, followed by cleaning with an alcohol pad. A 9/16 inch diameter punch biopsy tool was used to create a 1 cm wound in the central dorsal thoracic region, roughly in the center of the field of radiation exposure. The panniculus carnosus muscle and overlying skin will be removed. The wound will be left open to air. The size of the wound approximates 15% of the total body skin surface.
TSN6 peptide (5 μg/day in 50 μl sterile saline) or hepatocyte growth factor (HGF; 3.3 μg/day in 50 μl sterile saline) or vehicle (sterile saline, 50 μl) were injected subcutaneously on days 2, 7 and 10 post-irradiation. Injections were made caudal, adjacent to the irradiated or irradiated/wounded area.
Animals were monitored daily for 85 days post-irradiation for both radiation dermatitis and combined injury models. Radiation dermatitis was separately scored for hair loss, erythema, scale, and ulceration. Scoring for erythema, scale and ulceration were previously described: 0=none; 1=minimal; 2=mild; 3=moderate; 4=marked. Because all animals underwent fur clipping prior to irradiation and wounding, scoring for hair loss was determined as failure to regrow hair in the irradiated areas: 0=none; 1=minimal; 2=mild; 3=moderate; 4=marked. Animals were photographed for the measurement of wounds and for dermatitis scoring. […] Weight was measured as an indication of overall health.

[1] = 16.5 Gy plus wound, s.c. days 2, 7, 10, TSN6 5 μg/day, HGF 3.3 μg/day

HSPDIQLQKGLTFEPIQIK [TSN6, 19 amino acid peptide derived from multimerin-1, Coiled coil domain]
time to wound closure in the presence of radiation (16.5 Gy plus 9/16 inch wound, TSN6 5 μg/day s.c. days 2, 7, 10, irradiated vehicle ~30 days, no radiation ~14 days): about 16 days post-irradiation
combined injury (overall) (16.5 Gy plus wound, TSN6 5 μg/day s.c. days 2, 7, 10 (FIG. 7)): Mitigation of combined injury
characteristics of radiation dermatitis (hair loss, scale, erythema, ulceration) including combined score [1]: markedly reduced
rate of wound closure / wound repair [1]: increased the rate of wound closure
radiation dermatitis in images of mice (57, 71 and 75/79 days post-irradiation, vs vehicle (FIG. 13)): vast improvement; also recorded: improves radiation dermatitis
wound closure (79 days post-irradiation (FIG. 13C)): full wound closure
hair regrowth (79 days post-irradiation, vehicle: no hair regrowth (FIG. 13)): hair regrowth; also recorded: regrows pigmented hair
